Data: US20230242616A1, “CHEMOKINE-SELECTIVE CXCR4 ECTODOMAIN-DERIVED (POLY)PEPTIDE” (Ludwig-Maximilians-Universität München, priority 2020, published 2023)

Experiments:
[1] = tested on: primary human monocyte-derived macrophages; test: Dil-LDL uptake / foam cell formation, MIF-mediated; format: cell-based; details: 80 nM MIF
Experimental: Dil-LDL uptake/foam cell formation. […] After washing with imaging solution (MEM without phenol red containing 30 mM HEPES, 0.5 g/L NaHCO3, pH 7.4, and 0.2% BSA), cells were exposed to 50 μg/mL 1,1′-dioctadecyl-3,3,3′3′-tetra-methylindocarbocyanine-labeled LDL (Dil-LDL) for 30 min at 4° C. followed by incubation at 37° C. for 20 min. Cells were washed with ice-cold imaging solution (pH 3.5), fixed, and counter-stained with Hoechst 33258.

[2] = tested on: human monocyte-derived macrophages; test: cells; details: Macrophage, read-out: IC50 of MIF-triggered Dil-oxLDL uptake
[3] = tested on: human monocyte-derived macrophages; details: from titration of the CXCR4 inhibitor
atherogenic Apoe−/− mice = test: Localization of in-vivo-administered Fluos-msR4M-L1 (multiphoton microscopy); parameters: species or system mouse; details: three days before vessel preparation
[4] = tested on: human carotid atherosclerotic plaque sections; test: Staining of human carotid endarterectomy plaque sections with Fluos-msR4M-L1
Source text: Patient population, study groups and tissue samples. Carotid artery tissue samples (n=28) came from the Munich Vascular Biobank (MVB) and were from patients who underwent carotid endarterectomy (CEA) in the Department of Vascular and Endovascular Surgery at University Hospital of Technische Universität München. Preparation of samples for histological and IHC analysis has been reported^40. […] Healthy FFPE carotid vessels were obtained from the Forensic Medicine Department (n=6). The type of atherosclerotic lesions in the CEA samples was determined according to the American Heart Association (AHA) guidelines using HE and Elastica-van-Gieson (EVG) staining procedures as described^40. […] The study was approved by the local ethical committee of the University Hospital and followed the Guidelines of the World Medical Association Declaration of Helsinki. All patients provided informed consent. Immunohistochemistry/immunofluorescence staining. Immunofluorescence staining of human CEA tissues with Fluos-msR4M-L1 was performed using the same protocol as for paraffin-embedded specimens from Ldlr^−/− mice (see above). […] HRP-conjugated polyclonal rabbit anti-goat immunoglobulin (DAKO, P0160, 1:1000) was used as secondary antibody. Slides were counterstained with Mayer hematoxylin and stainings analyzed with a Leica DMi8.

plaque-associated MIF = molecular target: T1, plaque-associated MIF (Mus musculus, UniProt P34884); test: Staining of mouse atherosclerotic plaque sections with Fluos-msR4M-L1; details: Ldlr−/− aortic root, Apoe−/− brachiocephalic artery
T1 construct: from tissue; host or cells: aortic root (Ldlr-/-) and brachiocephalic artery (Apoe-/-) sections of atherogenic mice
Experimental: Staining of atherosclerotic plaque tissue with Fluos-msR4M-L1. Immunofluorescent staining of atherosclerotic tissue with Fluos-msR4M-L1 was performed with specimens from atherogenic Ldlr^−/− and Apoe^−/− mice. Ldlr^−/− mice were on chow diet for 30 weeks and developed native atherosclerotic lesions as reported previously^14. Mif-deficient mice (Ldlr^−/− Mif^−/−) were used for comparison. Aortic root sections were deparaffinized and rehydrated. For antigen retrieval, slides were boiled in sodium citrate buffer, pH 6.0, 0.05% Tween-20, and blocked with PBS, containing 5% donkey serum and 1% BSA. For staining, slides were incubated at 4° C. with Fluos-msR4M-L1 (5 μM) in blocking buffer. DAPI was used for nuclear counterstain and sections were imaged using a Leica DMI8 fluorescent microscope. The mean fluorescence intensity localized to the aortic vessel wall was quantified via Image J.
Sides were fixed in ice-cold acetone, rehydrated in PBS, and blocked in PBS/1% BSA, incubated with 500 nM Fluos-msR4M-L1, and analyzed as above.

CXCL12 = molecular target: T2, CXCL12 (Homo sapiens, UniProt P48061); test: Dot blot titration with TAMRA-msR4M-L1, immobilized CXCL12; format: binding
T2 construct: purchased Peprotech (or a gift of Dr. von Hundelshausen, LMU Munich)
Experimental: Dot blot. […] Non-specific binding was blocked with Tris-buffered saline (TBS), pH 7.4, containing 0.1% Tween-20 (TBS-T) and 1% BSA. […] Fluorescence intensities were measured at 600 nm using an Odyssey® Fc imager (LICOR Biosciences, Bad Homburg, Germany). The total intensity of each spot was automatically corrected by the individual background signal.

T2 sequence (P48061 22-93): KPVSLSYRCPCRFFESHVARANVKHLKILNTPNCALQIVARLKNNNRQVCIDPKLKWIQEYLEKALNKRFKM

c1cc(CN2CCCNCCNCCCNCC2)ccc1CN1CCCNCCNCCCNCC1 [AMD3100, reference compound]
effect on MIF-mediated Dil-LDL uptake [1]: blocked | IC50 [2]: 48.9 nM | CXCR4-dependent part of MIF-triggered oxLDL uptake [3]: approximately 50%

Fluos-ECL1-6-Ahx-12-Ado-ECL2 (DAVANWYFGNFLCKDRYICDRFYPNDLWV; non-natural residues) [Fluos-msR4M-L1]
tissue localization after intraperitoneal injection (atherogenic Apoe−/− mice): strongly localized to intimal plaque areas, while staining in spleen, liver, and brain was marginal | staining of stable versus unstable human carotid plaques and healthy vessels [4]: pronounced staining of stable carotid plaque tissue that was higher than Fluos-msR4M-L1 positivity detected in unstable plaques and healthy vessels | staining of plaque sections, Mif-proficient versus Mif-deficient mice (plaque-associated MIF): significantly more pronounced in plaque tissue from Mif-proficient atherogenic

CC[C@H](C)[C@H](NC(=O)[C@H](Cc1ccc(O)cc1)NC(=O)[C@H](CCCNC(=N)N)NC(=O)[C@H](CC(=O)O)NC(=O)CCCCCCCCCCCNC(=O)CCCCCNC(=O)[C@H](CCCCN)NC(=O)[C@H](CS)NC(=O)[C@H](CC(C)C)NC(=O)[C@H](Cc1ccccc1)NC(=O)[C@H](CC(N)=O)NC(=O)CNC(=O)[C@H](Cc1ccccc1)NC(=O)[C@H](Cc1ccc(O)cc1)NC(=O)[C@H](Cc1c[nH]c2ccccc12)NC(=O)[C@H](CC(N)=O)NC(=O)[C@H](C)NC(=O)[C@@H](NC(=O)[C@H](C)NC(=O)[C@H](CC(=O)O)NC(=O)c1ccc2c(c1)C(=O)OC21c2ccc(N(C)C)cc2Oc2cc(N(C)C)ccc21)C(C)C)C(=O)N[C@@H](CS)C(=O)N[C@@H](CC(=O)O)C(=O)N[C@@H](CCCNC(=N)N)C(=O)N[C@@H](Cc1ccccc1)C(=O)N[C@@H](Cc1ccc(O)cc1)C(=O)N1CCC[C@H]1C(=O)N[C@@H](CC(N)=O)C(=O)N[C@@H](CC(=O)O)C(=O)N[C@@H](CC(C)C)C(=O)N[C@@H](Cc1c[nH]c2ccccc12)C(=O)N[C@H](C(N)=O)C(C)C [TAMRA-msR4M-L1, TAMRA-ECL1-6-Ahx-12-Ado-ECL2]
binding to immobilized CXCL12 on dot blot (CXCL12): no binding to CXCL12
